According to paper PMC7104545, “Unusually persistent Gαi-signaling of the neuropeptide Y2 receptor depletes cellular Gi/o pools and leads to a Gi-refractory state” (Cell Communication and Signaling : CCS, 2020):
“Also recorded” adds a separate entry of the source. Each block holds one compound with its values, some of them ahead of it. Where a SMILES comes first, the peptide text is derived from it. [ ]: non-standard residue; d: D form. Ahx = NCCCCCC(=O)O

How the values were obtained:
hY2R = target: T1, hY2R (Homo sapiens, UniProt P49146); assay: cAMP assay, HEK293 co-transfected hY2R/hY1R, Y2R addressed; type: cell-based
T1 construct: expressed in transfected cells; host or cells: HEK293 (transient transfection, pEYFP-N1 vector)
T1 sequence (P49146 1-381): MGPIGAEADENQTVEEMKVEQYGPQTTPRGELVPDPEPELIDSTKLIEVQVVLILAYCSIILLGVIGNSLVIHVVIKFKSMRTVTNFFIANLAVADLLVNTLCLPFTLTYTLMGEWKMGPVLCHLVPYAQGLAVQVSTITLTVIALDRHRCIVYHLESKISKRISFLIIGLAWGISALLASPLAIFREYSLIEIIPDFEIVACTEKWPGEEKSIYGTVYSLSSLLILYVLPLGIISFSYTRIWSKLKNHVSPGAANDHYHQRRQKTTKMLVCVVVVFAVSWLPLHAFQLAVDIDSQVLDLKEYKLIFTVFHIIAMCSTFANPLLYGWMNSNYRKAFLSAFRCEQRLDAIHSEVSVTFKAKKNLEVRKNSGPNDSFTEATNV
Experimental: (§1) HEK293 cells were grown in 25 cm^2 culture flask up to 70–80% confluence in a humidified atmosphere at 37 °C and 5% CO2. Co-transfection of 3000 ng pGL4.29[luc2P/CRE/Hygro] (Promega) plasmid and 3000 ng plasmid encoding for the respective receptor was performed using Metafectene® Pro (Biontex Laboratories GmbH) according to the manufacturer’s protocol. One-day post-transfection cells were seeded into white poly-D-lysine covert 96-well plates (Greiner Bio-one) and incubated overnight at 37 °C. For pertussis toxin experiments, medium was supplied with certain concentration (100 ng/ml, 250 ng/ml, 500 ng/ml) of pertussis toxin (Sigma). Two-day post-transfection cAMP experiments were performed with the help of ONE-Glo substrate (Promega), allowing luminescence measurement with the Tecan Infinite M200. […] For recycling, cells were incubated for 60 min with DMEM supplemented with 100 μg/ml CHX (Merck/Calbiochem®). […] As a positive control only 5 μM forskolin were added to the wells. After incubation, medium was exchanged by 30 μl fresh DMEM (RT). 30 μl ONE-Glo substrate was added and after 5 min of incubation the cAMP level was measured by detecting the luminescence. For co-transfection experiments the transfection of two receptors simultaneously and pGL4.29[luc2P/CRE/Hygro] plasmid were performed in a ratio 1:1:1, keeping the total amount of 6000 ng. […] The second stimulation was performed in a peptide concentration range, addressing the respective receptor that was missed in the first round.

[1] = target: T2, neuropeptide Y2R (endogenous in SH-SY5Y cells) (Homo sapiens, UniProt P49146); assay: Ca^2+-flux assay, SH-SY5Y cells transfected with chimeric Gqi; type: cell-based
T2 construct: SH-SY5Y cells that endogenously expressing Y2R; endogenous in cells; host or cells: SH-SY5Y (transiently transfected with chimeric Gqi protein only)
T2 sequence (P49146 1-381): T1 sequence (P49146 1-381)
Experimental: (§2) HEK293 cells were grown in 25 cm^2 culture flask up to 70–80% confluence in a humidified atmosphere at 37 °C and 5% CO2. Co-transfection of 800 ng plasmid encoding the GαΔ6qi4myr protein and 3200 ng plasmid encoding for the Y2R fused C-terminally to eYFP was performed by using Metafectene® Pro (Biontex Laboratories GmbH) according to manufacturer’s protocol. One-day post transfection, cells were re-seeded (100.000 cells/well) into a black poly-D-lysine covert 96-well plates (Greiner Bio-one) and incubated overnight at 37 °C. Two-days post transfection Ca^2+ experiments were performed with the help of the FLIPR® Calcium Assay Kit (Molecular Devices). […] For recycling, cells were incubated for 60 min with assay buffer (20 mM HEPES, 2.5 mM Probenecid in HBSS, pH 7.5) supplemented with 100 μg/ml CHX (Merck/Calbiochem®) and 1 μM Fluor-2-AM staining dye. […] For the GαΔ6qi4myr overexpression experiments, the transfection ratio between receptor DNA and G protein DNA was varied from the initial concentration 4:1, using a total DNA amount of 4000 ng. By keeping the G protein amount equal to 800 ng, the resulting discrepancy was filled with pcDNA3.

adenylyl cyclase = assay: Impact of Ca^2+ and PKC on cellular cAMP level, HEK293-hY2R-eYFP; type: cell-based; details: 10 µM PKC inhibitor 30 min prior to stimulation with peptide; n≥2
[2] = target: T3, human neuropeptide Y2 receptor (hY2R) (Homo sapiens, UniProt P49146); parameters: expressed in transfected cells; host or cells: HEK293 (transient transfection, pEYFP-N1 vector); details: ref [29]; cited from earlier work
T3 sequence (P49146 1-381): T1 sequence (P49146 1-381)
Text: Contrary to the obviously low arrestin binding affinity, the unoccupied receptor apparently exists in a conformation that strongly favors G protein coupling. Kaiser et al. recently reported two different affinity states concerning Y2R binding properties. […].

[3] = target: T3, human neuropeptide Y2 receptor (hY2R); assay: cAMP reporter gene assay, HEK293-hY2R; type: cell-based; parameters: expressed in transfected cells; host or cells: HEK293 (transient transfection, pEYFP-N1 vector)
Experimental: as §1

[4] = target: T3, human neuropeptide Y2 receptor (hY2R); assay: TAMRA-NPY uptake in second stimulation, live cell microscopy (HEK293-HA-Y2R-eYFP); type: cell-based; parameters: expressed in transfected cells; host or cells: HEK293 (transient transfection, pEYFP-N1 vector); details: n ≥ 3
Experimental: HEK293 or HEK293-HA-Y2R-eYFP were re-seeded (150.00/well) into sterile poly-D-lysine covered μ-slide 8 wells (Ibidi) and grown in a humidified atmosphere at 37 °C and 5% CO2. For transfection, cells were cultured up to 70–80% confluency and subsequently transfected with 1.0 μg total DNA using Lipofectamine® 2000 transfection reagent (Invitrogen) according to the manufacturer’s protocol. For single transfection in empty HEK293 cells 1.0 μg of HA-Y2R-eYFP-N1 plasmid DNA was used. At the experimental day cells were starved in Opti-MEM® reduced serum medium (Gibco®) containing Hoechst33342 (Sigma) for 30 min at 37 °C. LysoTracker®Blue with a final concentration of 1 μM was used for visualization of the lysosomes. […] For recycling studies, cells were washed twice with acidic wash buffer (50 mM glycine, 100 mM NaCl, pH 3.0) and neutralized once with Hank’s balanced salt solution (HBSS; PAA), followed by a recovery period for 60 min in ligand-free media supplemented with 100 μg/ml cycloheximide (CHX; Merck/Calbiochem®) and with or without 20 mM NH4Cl as an expression inhibitor and recycling inhibitor respectively. […] All microscopy images were obtained using the AxioObserver.Z1 microscope equipped with an ApoTome imaging system (Zeiss, Jena). Within one experimental setup, all images were taken using a fixed exposure time for the single fluorescence channels.
Microscopy pictures were processed with the standard software Axio vision 4.8 and exported as an 8 Bit TIFF file (Tagged Image File Format). The open access software Image J was applied for the analysis of the pictures. For determination of mean cell surface fluorescence (MCSF) ten nonadjacent cells per image were measured using the segmented line function. Calculation of the relative TAMRA fluorescence, the Raw Intensity Density was measured under distinct conditions. The particular background fluorescence of each image was subtracted after every evaluation. Since this program uses the single gray levels for evaluation, the calculated values were evaluated retroactively as relative fluorescence intensity and analyzed with the statistical program GraphPad Prism.

[5] = test system: HEK293-HA-hY2R-eYFP cells; assay: Intracellular fate of TAMRA-NPY (live cell microscopy, lysosomal stain, EEA1 immunostaining); type: cell-based, human
Experimental: HEK293-HA-hY2R-eYFP cells were seeded on poly-D-lysine coated coverslips (500.000 /well). […] Gradually preparation of all samples was performed in 10 min intervals of 2% paraformaldehyde (PFA)/PBS on ice, 2% PFA/PBS at RT and finally 4% PFA/PBS at RT. Samples were blocked and permeabilized with 10% BSA/0.1% TritonX-100/PBS for 1 h at RT. Incubation with anti-EEA1 (Santa Cruz, sc-33,585) (1:100) in 1% BSA/0.01% TritonX-100/PBS occurred overnight at 4 °C. The next day, samples were treated with anti-rabbit-AF350 (InvitrogenTM) (1:400) in 1% BSA/0.01% TritonX- 100/PBS for 2 h at RT and mounted with Fluoromount-G®.

hY4R = assay: Ca^2+-flux assay, HEK293 co-transfected hY2R/hY4R, PP to address Y4R; type: cell-based, human; details: 1 μM NPY first, acidic wash, 60 min recovery; Fig. S3B; n≥2
Experimental: as §2

HEK293-hY2R cells = assay: Cell toxicity by microscopy (cell morphology); type: cell-based, human; details: PTX 250 ng/ml
[6] = test system: melanocortin 1 receptor (MCR1); assay: cAMP assay, HEK293 co-transfected hY2R/melanocortin 1 receptor; type: cell-based; details: PTX present; first stimulation 1 μM NPY
Experimental: HEK293 cells were grown in 25 cm^2 culture flask up to 70–80% confluence in a humidified atmosphere at 37 °C and 5% CO2. Co-transfection of 3000 ng pGL4.29[luc2P/CRE/Hygro] (Promega) plasmid and 3000 ng plasmid encoding for the respective receptor was performed using Metafectene® Pro (Biontex Laboratories GmbH) according to the manufacturer’s protocol. One-day post-transfection cells were seeded into white poly-D-lysine covert 96-well plates (Greiner Bio-one) and incubated overnight at 37 °C. For pertussis toxin experiments, medium was supplied with certain concentration (100 ng/ml, 250 ng/ml, 500 ng/ml) of pertussis toxin (Sigma). Two-day post-transfection cAMP experiments were performed with the help of ONE-Glo substrate (Promega), allowing luminescence measurement with the Tecan Infinite M200. […] For recycling, cells were incubated for 60 min with DMEM supplemented with 100 μg/ml CHX (Merck/Calbiochem®). […] As a positive control only 5 μM forskolin were added to the wells. After incubation, medium was exchanged by 30 μl fresh DMEM (RT). 30 μl ONE-Glo substrate was added and after 5 min of incubation the cAMP level was measured by detecting the luminescence. For co-transfection experiments the transfection of two receptors simultaneously and pGL4.29[luc2P/CRE/Hygro] plasmid were performed in a ratio 1:1:1, keeping the total amount of 6000 ng. […]

Compound: CN(C)CCCn1cc(C2=C(c3c[nH]c4ccccc34)C(=O)NC2=O)c2ccccc21 [Bisindolylmaleimide I]
effect of PKC inhibitor on adenylyl cyclase inhibition (adenylyl cyclase): abolished inhibitory effect of adenylyl cyclases and Y2R downstream signaling

Compound: Nc1nc2c(ncn2[C@@H]2O[C@H](COP(=O)(O)OP(=O)(O)OP(O)(O)=S)[C@@H](O)[C@H]2O)c(=O)[nH]1 [GTPγS, Guanosine 5′-O-[gamma-thio] triphosphate]
effect of GTPγS on total binding [2]: loss in total binding

Compound: TAMRA-NPY: fluorescent NPY derivative, 5-carboxytetramethylrhodamine (TAMRA)-NPY
TAMRA-NPY internalization in second stimulation, comparison 0 RE vs 60 RE ± NH4Cl ([4]; 1 μM NPY first, then 100 nM TAMRA-NPY 60 min): no difference in TAMRA internalization | TAMRA-NPY uptake, 0 RE ([4]; 1 μM NPY, acidic wash, direct second stimulation 100 nM TAMRA-NPY 60 min, 37 °C, control = 100%): 45 ± 5% | TAMRA-NPY uptake, 60 RE ([4]; 1 μM NPY, wash, 60 min recovery with CHX, then 100 nM TAMRA-NPY 60 min, control = 100%): 49 ± 4% | TAMRA-NPY uptake, 60 RE + NH4Cl ([4]; as 60 RE with 20 mM NH4Cl during recovery, control = 100%): 48 ± 46% | localisation after 60 min recycling period ([5]; 100 nM TAMRA-NPY, lysosomal marker LysoTracker Blue): degradation in lysosomes; also recorded: co-localized with the lysosomal marker | localisation in early endosomes ([5]; EEA1 immunostaining): intracellular accumulation of TAMRA-NPY in early and sorting endosomes | co-internalization with receptor ([5]; TAMRA-NPY 60 min, 37 °C): Co-internalization of the ligand-receptor-complex was observed

Compound: pertussis toxin [PTX]
cell toxicity (cell morphology) (HEK293-hY2R cells): no differences in cell morphology were observed | effect on maximal forskolin-induced cAMP response after NPY ([3]; PTX 250 ng/ml, treatment of cells with NPY first): AC-activity is rescued; also recorded: clearly rescued the maximal cAMP response; also recorded: adenylyl cyclase was still activatable by forskolin | effect of varying PTX concentrations on AC-activity ([3]; PTX 100, 250, 500 ng/ml, compared to control curve (Fig. 3f)): caused inhibition of AC-activity compared to control curve | effect on inhibitory effect of Y2R (MCR1/Y2R cells) [6]: completely abolished; also recorded: abolishing the slight inhibitory effect

Second part, led by results:

Emax (hY2R; HEK293, second stimulation after 1 μM F^7,P^34-NPY and 60 min recovery, Ahx^5–24-NPY control curve = 100%): 74%
Compound: CC[C@H](C)[C@H](NC(=O)[C@H](Cc1ccc(O)cc1)NC(=O)[C@H](Cc1c[nH]cn1)NC(=O)[C@H](CCCNC(=N)N)NC(=O)CCCCCNC(=O)[C@H](CCCCN)NC(=O)[C@H](CO)NC(=O)[C@@H]1CCCN1C(=O)[C@@H](N)Cc1ccc(O)cc1)C(=O)N[C@@H](CC(N)=O)C(=O)N[C@@H](CC(C)C)C(=O)N[C@H](C(=O)N[C@H](C(=O)N[C@@H](CCCNC(=N)N)C(=O)N[C@@H](CCC(N)=O)C(=O)N[C@@H](CCCNC(=N)N)C(=O)N[C@@H](Cc1ccc(O)cc1)C(N)=O)[C@@H](C)O)[C@@H](C)CC [Ahx^5–24-NPY] (H-YPSK[Ahx]RHYINLITRQRY-NH2)

EC50 (hY2R; Y1R/Y2R co-transfected HEK293, no first stimulation): 14 nM | EC50 (hY2R; second stimulation after 1 μM F^7,P^34-NPY and 60 min recovery): 28 nM | EC50 ([1]; no first stimulation, SH-SY5Y + Gqi, n ≥ 3): 41.9 nM
Compound: CC[C@H](C)[C@H](NC(=O)[C@H](Cc1ccc(O)cc1)NC(=O)[C@H](Cc1cnc[nH]1)NC(=O)[C@H](CCCNC(=N)N)NC(=O)CCCCCNC(=O)[C@H](CCCCN)NC(=O)[C@H](CO)NC(=O)[C@@H]1CCCN1C(=O)[C@@H](N)Cc1ccc(O)cc1)C(=O)N[C@@H](CC(N)=O)C(=O)N[C@@H](CC(C)C)C(=O)N[C@H](C(=O)N[C@H](C(=O)N[C@@H](CCCNC(=N)N)C(=O)N[C@@H](CCC(N)=O)C(=O)N[C@@H](CCCNC(=N)N)C(=O)N[C@@H](Cc1ccc(O)cc1)C(N)=O)[C@@H](C)O)[C@@H](C)CC [Ahx^5–24-NPY] (H-YPSK[Ahx]RHYINLITRQRY-NH2)

increase of baseline intracellular cAMP by forskolin ([3]; 5 μM forskolin, Y2R-expressing HEK293, without NPY): ~ 10 fold
Compound: C=C[C@@]1(C)CC(=O)[C@]2(O)[C@@]3(C)[C@@H](O)CCC(C)(C)[C@@H]3[C@H](O)[C@H](OC(C)=O)[C@@]2(C)O1 [forskolin]

Ca^2+ activity in SH-SY5Y ([1]; SH-SY5Y, endogenous background, n≥3): no activity
Compound: pancreatic polypeptide [PP]
Ca^2+ response of PP after first stimulation with NPY (hY4R): obvious loss in activity, since no Ca^2+response was measured
